# In US20130165472A1, “HETEROARYLS AND USES THEREOF” (MILLENNIUM PHARMACEUTICALS, INC., priority 2011, published 2013):
# Target: T1, VPS34 (Homo sapiens, UniProt Q8NEB9)
# T1 construct: GST (N); host or cells: SF9 insect cells (baculovirus)
# Test: Human VPS34 enzyme assay (Adapta TR-FRET)
# Type: biochemical
# Details: for VPS34 Percent Inhibition: at a 1.11 μM concentration
# Method: VPS34 (accession number GB:BC033004) was cloned into pDEST20-Thombin as N-terminal GST tagged fusion proteins using the Gateway system (Invitrogen, catalog#11804-013). The sequences were verified before recombinant protein expression using the Baculovirus Expression System with Gateway® Technology.
# For expression VPS34 was infected at 1MOI in SF9 cells and harvested 72 hours post infection.
# For purification, VPS34 is purified by Glutathione Sepharose 4 Fast Flow (GE Healthcare #17-5132-03) followed by HiTrap Q (GE Healthcare #17-1153-01).
# Human VPS34 Enzyme Assay Method
# […] compounds in DMSO are added to wells of a 384 well microtitre plate (Greiner 780076). At room temperature: 5 ul VPS34 reaction buffer (Invitrogen Assay Buffer Q (diluted 1 in 5 with nanopure water) plus 2 mM DTT and 2 mM MnCl2) containing ATP (20 uM, Promega) and 200 uM PI-PS substrate (Invitrogen PV5122) is added followed immediately by 5 ul VPS34 reaction buffer (as above) containing VPS34 (5 nM, Millennium Protein Sciences Group) and the mixture is incubated with shaking at room temperature for 1 hour. Then 5 ul VPS34 stop-detect mix (as per Invitrogen Adapta Assay kit (PV5009) instructions (contains kinase quench buffer, TR-FRET buffer, Adapta Eu anti-ADP antibody and Alexa Fluor 647 ADP tracer)) is added to quench the reaction. The plates are then incubated for 30 minutes at room temperature with shaking and then read on a BMG PheraStar Plus reader.
# For the assay methods described above, test compound percent inhibition, at various concentrations, is calculated relative to control (DMSO and EDTA) treated samples. Compound concentration versus percent inhibition curves are fitted to generate IC50 values. One skilled in the art will appreciate that the values generated either as percentage inhibition at a single concentration or IC50 values are subject to experimental variation.
# 3) VPS34 is assayed using Adapta™ Universal Kinase Assay Kit (Invitrogen).
# T1 sequence (Q8NEB9 whole entry): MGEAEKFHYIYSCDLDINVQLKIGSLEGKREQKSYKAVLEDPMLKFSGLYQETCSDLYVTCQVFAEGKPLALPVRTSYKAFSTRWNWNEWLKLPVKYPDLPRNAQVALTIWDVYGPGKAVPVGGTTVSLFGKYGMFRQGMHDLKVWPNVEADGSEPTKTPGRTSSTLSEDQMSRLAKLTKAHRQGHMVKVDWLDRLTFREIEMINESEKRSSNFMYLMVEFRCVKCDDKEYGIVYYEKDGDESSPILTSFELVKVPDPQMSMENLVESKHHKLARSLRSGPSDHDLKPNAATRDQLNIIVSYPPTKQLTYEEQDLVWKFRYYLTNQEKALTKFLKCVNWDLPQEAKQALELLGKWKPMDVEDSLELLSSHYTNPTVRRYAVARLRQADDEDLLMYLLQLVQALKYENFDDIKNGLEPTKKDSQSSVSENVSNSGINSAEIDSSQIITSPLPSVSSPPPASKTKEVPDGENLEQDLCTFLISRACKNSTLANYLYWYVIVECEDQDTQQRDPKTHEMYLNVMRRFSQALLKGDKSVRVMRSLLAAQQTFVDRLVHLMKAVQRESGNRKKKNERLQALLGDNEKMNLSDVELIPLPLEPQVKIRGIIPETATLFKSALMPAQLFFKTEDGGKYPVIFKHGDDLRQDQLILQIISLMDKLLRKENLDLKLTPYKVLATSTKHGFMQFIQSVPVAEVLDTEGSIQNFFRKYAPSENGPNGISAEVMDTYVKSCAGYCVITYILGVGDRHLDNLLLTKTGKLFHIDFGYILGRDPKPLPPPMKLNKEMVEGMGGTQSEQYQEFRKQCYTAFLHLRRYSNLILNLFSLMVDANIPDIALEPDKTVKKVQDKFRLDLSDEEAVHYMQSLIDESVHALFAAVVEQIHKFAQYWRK
smiles,measurement,value
"CC(=O)Nc1cc(-c2cn(-c3ccc(Cl)cc3Cl)c(-c3ccn[nH]3)n2)ccn1 [Compound I-10, N-{4-[1-(2,4-dichlorophenyl)-2-(1H-pyrazol-5-yl)-1H-imidazol-4-yl]pyridin-2-yl}acetamide]",IC50,1000 to 3000 nM
same,VPS34 Percent Inhibition,27
"CC(=O)Nc1cc(-c2cn(-c3ccc(Cl)cc3Cl)c(-c3ccn[nH]3)n2)c(C)cn1 [Compound I-16, N-{4-[1-(2,4-dichlorophenyl)-2-(1H-pyrazol-5-yl)-1H-imidazol-4-yl]-5-methylpyridin-2-yl}acetamide]",IC50,1000 to 3000 nM
same,VPS34 Percent Inhibition,35
"CC(=O)Nc1cc(-c2nc(-c3ccc(Cl)cc3Cl)c(C(N)=O)[nH]2)ccn1 [Compound I-19, 2-(2-acetamidopyridin-4-yl)-4-(2,4-dichlorophenyl)-1H-imidazole-5-carboxamide]",IC50,1000 to 3000 nM
same,VPS34 Percent Inhibition,28
"CC(=O)Nc1cc2c(ccn3c(C(N)=O)c(-c4ccc(Cl)cc4Cl)nc23)cn1 [Compound I-24, 9-acetamido-2-(2,4-dichlorophenyl)imidazo[2,1-a][2,6]naphthyridine-3-carboxamide]",IC50,< 300 nM
same,VPS34 Percent Inhibition,>99
"CC(=O)Nc1cc(-c2cn(-c3ccccn3)c(-c3ccccc3Cl)n2)ccn1 [Compound I-105, N-{4-[2-(2-chlorophenyl)-1-(pyridin-2-yl)-1H-imidazol-4-yl]pyridin-2-yl}acetamide]",IC50,300 to 1000 nM
same,VPS34 Percent Inhibition,55
